Columns and labels:
[1] = Inhibition of Trypanosoma brucei methionyl tRNA synthetase using L-methionine as substrate preincubated for 15 mins followed by substrate addition measured after 120 mins in presence of ATP by Kinase Glo chemiluminescence assay
Trypanosoma brucei = experiment: Antitrypanosomal activity against Trypanosoma brucei 427 bloodstream forms after 48 hrs by alamar blue assay; assay type: functional; conditions: Trypanosoma brucei, 427, 48 h
[2] = Cytotoxicity against human CRL8155 cells after 48 hrs by alamar blue assay; assay type: cell-based; conditions: crl8155, 48 h
[3] = AUC in mouse at 50 mg/kg, administered through oral gavage by LC-MS analysis; assay type: ADME, organism-based; conditions: in vivo
HepG2 = experiment: Cytotoxicity against human HepG2 cells after 48 hrs by alamar blue assay; assay type: cell-based; conditions: hepg2, 48 h
[4] = Cmax in mouse at 50 mg/kg, administered through oral gavage by LC-MS analysis; assay type: ADME, organism-based; design: dose 50 mg/kg, route oral; conditions: in vivo

## COc1c(Cl)cc(Cl)cc1CN[C@H]1CCCN(c2nc3nc(Cl)ccc3[nH]2)C1
[1]
  IC50: < 50 nM
Trypanosoma brucei; read-out: EC50
  EC50: 357 nM

## COC(=O)C(NCCN(C)c1nc2nc(Cl)ccc2[nH]1)c1cc(Cl)cc(Cl)c1 (configuration not stated)
[1]
  IC50: 86 nM
Trypanosoma brucei; read-out: EC50
  EC50: 5270 nM

## CN(CCNC(CO)c1cc(Cl)cc(Cl)c1)c1nc2nc(Cl)ccc2[nH]1 (configuration not stated)
[1]
  IC50: 101 nM
Trypanosoma brucei; read-out: EC50
  EC50: 995 nM

## Oc1c(Cl)cc(Cl)cc1CN[C@H]1CCCN(c2nc3nc(Cl)ccc3[nH]2)C1
[1]
  IC50: < 50 nM
Trypanosoma brucei; read-out: EC50
  EC50: 241 nM

## CN(CCN[C@@H]1CCNc2c(Cl)cc(Cl)cc21)c1nc2nc(Cl)ccc2[nH]1
[2]
  CC50: 18500 nM
[3]
  AUC: 2.33 µM·h
[1]
  IC50: < 50 nM
HepG2
  CC50: 30600 nM
[4]
  Cmax: 1.3 µM
Trypanosoma brucei; read-out: EC50
  EC50: 4 nM
Trypanosoma brucei; read-out: pEC50 (converted)
  EC50: 3.98 nM

## CCOc1c(Cl)cc(Cl)cc1CN[C@H]1CCCN(c2nc3nc(Cl)ccc3[nH]2)C1
[1]
  IC50: < 50 nM
Trypanosoma brucei; read-out: EC50
  EC50: 111 nM

## Clc1cc(Br)cc(CN[C@H]2CCCN(c3nc4nc(Cl)ccc4[nH]3)C2)c1
[2]
  CC50: 43000 nM
[3]
  AUC: 78.1 µM·h
[1]
  IC50: < 50 nM
HepG2
  CC50: > 50000 nM
[4]
  Cmax: 19.2 µM
Trypanosoma brucei; read-out: EC50
  EC50: 71 nM
Trypanosoma brucei; read-out: pEC50 (converted)
  EC50: 63.1 nM

## N#Cc1cc(Cl)cc(CN[C@H]2CCCN(c3nc4nc(Cl)ccc4[nH]3)C2)c1
[1]
  IC50: < 50 nM
Trypanosoma brucei; read-out: EC50
  EC50: 111 nM

## CCCOc1c(Cl)cc(Cl)cc1CN[C@H]1CCCN(c2nc3nc(Cl)ccc3[nH]2)C1
[1]
  IC50: < 50 nM
Trypanosoma brucei; read-out: EC50
  EC50: 827 nM

## CCOc1c(Cl)cc(Cl)cc1CNCCN(C)c1nc2nc(Cl)ccc2[nH]1
[1]
  IC50: < 50 nM
Trypanosoma brucei; read-out: EC50
  EC50: 314 nM

## Clc1cc(Cl)c(OC2CC2)c(CN[C@H]2CCCN(c3nc4nc(Cl)ccc4[nH]3)C2)c1
[1]
  IC50: 389 nM
Trypanosoma brucei; read-out: EC50
  EC50: 3120 nM

## Clc1cc(Cl)c2c(c1)C(N[C@H]1CCCN(c3nc4nc(Cl)ccc4[nH]3)C1)CCN2 (some centres not stated)
[2]
  CC50: 19000 nM
[3]
  AUC: 15.8 µM·h
[1]
  IC50: 89 nM
HepG2
  CC50: 40200 nM
[4]
  Cmax: 14.7 µM
Trypanosoma brucei; read-out: EC50
  EC50: 57 nM
Trypanosoma brucei; read-out: pEC50 (converted)
  EC50: 50.1 nM

## COc1c(Br)cc(Br)cc1CN[C@H]1CCCN(c2nc3nc(Cl)ccc3[nH]2)C1
[1]
  IC50: < 50 nM
Trypanosoma brucei; read-out: EC50
  EC50: 334 nM

## Clc1cc(Cl)c(OCC2CC2)c(CN[C@H]2CCCN(c3nc4nc(Cl)ccc4[nH]3)C2)c1
[1]
  IC50: < 50 nM
Trypanosoma brucei; read-out: EC50
  EC50: 511 nM

## CN(CCNC(C(N)=O)c1cc(Cl)cc(Cl)c1)c1nc2nc(Cl)ccc2[nH]1 (configuration not stated)
[1]
  IC50: 75 nM
Trypanosoma brucei; read-out: EC50
  EC50: 4490 nM

## CCOc1c(Br)cc(Br)cc1CN[C@H]1CCCN(c2nc3nc(Cl)ccc3[nH]2)C1
[2]
  CC50: 10500 nM
[3]
  AUC: 3.03 µM·h
[1]
  IC50: < 50 nM
HepG2
  CC50: 18700 nM
[4]
  Cmax: 2.1 µM
Trypanosoma brucei; read-out: EC50
  EC50: 40 nM
Trypanosoma brucei; read-out: pEC50 (converted)
  EC50: 39.8 nM

## Clc1cc(Cl)c(Cl)c(CN[C@H]2CCCN(c3nc4nc(Cl)ccc4[nH]3)C2)c1
[1]
  IC50: < 50 nM
Trypanosoma brucei; read-out: EC50
  EC50: 354 nM

## CCOc1c(Br)cc(Cl)cc1CN[C@H]1CCCN(c2nc3nc(Cl)ccc3[nH]2)C1
[1]
  IC50: < 50 nM
Trypanosoma brucei; read-out: EC50
  EC50: 230 nM

## Clc1ccc2nc(N3CCC[C@H](NCc4cc(Br)cc(Br)c4)C3)[nH]c2n1
[2]
  CC50: 47600 nM
[1]
  IC50: < 50 nM
HepG2
  CC50: 39100 nM
Trypanosoma brucei; read-out: EC50
  EC50: 85 nM
Trypanosoma brucei; read-out: pEC50 (converted)
  EC50: 79.4 nM

## CC(C)Oc1c(Cl)cc(Cl)cc1CN[C@H]1CCCN(c2nc3nc(Cl)ccc3[nH]2)C1
[1]
  IC50: 305 nM
Trypanosoma brucei; read-out: EC50
  EC50: 1700 nM

## CCNc1c(Cl)cc(Cl)cc1CN[C@H]1CCCN(c2nc3nc(Cl)ccc3[nH]2)C1
[1]
  IC50: < 50 nM
Trypanosoma brucei; read-out: EC50
  EC50: 359 nM

## C=CCOc1c(Cl)cc(Cl)cc1CN[C@H]1CCCN(c2nc3nc(Cl)ccc3[nH]2)C1
[1]
  IC50: < 50 nM
Trypanosoma brucei; read-out: EC50
  EC50: 326 nM

From ChEMBL document CHEMBL4020750 (Bioorg Med Chem Lett, 2017)
